Assays:
[1] = test system: NMDAR-mediated currents in the ACC; experiment: NMDAR-mediated EPSCs in the ACC; type: cell-based, mouse
Experimental: Coronal brain slices ([…]) from 6-8-week-old C57BL/6 mice, containing ACC or hippocampus, were prepared using standard methods (Wei et al., 2001). Slices were transferred to a submerged recovery chamber containing oxygenated (95% O2 and 5% CO2) artificial cerebrospinal fluid (ACSF) (in mM: 124 NaCl, 4.4 KCl, 2 CaCl2, 1 MgSO4, 25 NaHCO3, 1 NaH2PO4, 10 glucose) at room temperature for at least 1 h.
Experiments were performed in a recording chamber on the stage of an Axioskop 2FS microscope with infrared DIC optics for visualizing whole-cell patch clamp recordings. EPSCs were recorded from layer II-III neurons using an Axon 200B amplifier (Axon Instruments, CA) and stimulations were delivered using a bipolar tungsten stimulating electrode placed in layer V of the ACC. In hippocampal slices, EPSCs were evoked by stimulating the Schaffer collateral-commissural pathway. EPSCs were induced by repetitive stimulations at 0.02 Hz and neurons were voltage clamped at −70 mV. The recording pipettes (3-5 MΩ) were filled with solution containing (mM) 145 K-gluconate, 5 NaCl, 1 MgCl2, 0.2 EGTA, 10 HEPES, 2 Mg-ATP, and 0.1 Na3-GTP (adjusted to pH 7.2 with KOH). After obtaining stable EPSCs for 10 min, three kinds of LTP induction paradigms were used within 12 min after establishing the whole-cell configuration to prevent wash out effect on LTP induction (Tsvetkov et al., 2002). The first protocol involved paired presynaptic 80 pulses at 2 Hz with postsynaptic depolarization at +30 mV (referred to as pairing training). The second involved paired 3 presynaptic stimuli that caused 3 EPSPs (10 ms ahead) with 3 postsynaptic APs at 30 Hz, paired 15 times every 5 s (named as EPSPs-APs protocol). The third involved theta-burst stimulation (5 trains of burst with 4 pulses at 100 Hz, at 200 ms interval; repeated 4 times at intervals of 10 s; named as TBS). The NMDAR-mediated component of EPSCs was pharmacologically isolated in Mg^2+-free ACSF containing: CNQX (20 μM), glycine (1 μM) and picrotoxin (100 μM). The patch electrodes contained (in mM) 102 cesium gluconate, 5 TEA-chloride, 3.7 NaCl, 11 BAPTA, 0.2 EGTA, 20 HEPES, 2 MgATP, 0.3 NaGTP, and 5 QX-314 chloride (adjusted to pH 7.2 with CsOH). Neurons were voltage clamped at −60 mV and NMDARs-mediated EPSCs were evoked at 0.05 Hz. Picrotoxin (100 μM) was always present to block GABAA receptor-mediated inhibitory synaptic currents. The access resistance was 15-30 MΩ and was monitored throughout the experiment. Data were discarded if access resistance changed by more than 15% during an experiment. Results are expressed as means±SEM. Statistical comparisons were performed using the Student t-test.
One possible mechanism is that NR2B-containing receptors may contribute more to total NMDA currents in ACC synapses than in hippocampal synapses. […] Application of 0.1 μM or 0.4 μM NVP-AAM077 depressed total NMDAR-mediated currents by 59.0±4.3% (n=5) and 63.2±1.7% (n=6) in the ACC respectively (FIG. 5). On the other hand, application of 0.3 μM or 3 μM Ro25-6981 attenuated total NMDAR-mediated currents by 18.0±1.9% (n=5) and 18.1±3.4% (n=7) in the ACC respectively, showing that 0.3 μM Ro25-6981 was sufficient to block the NR2B-mediated currents (FIG. 5). This experiment was repeated in hippocampal CA1 neurons. […] However, unlike in the ACC, application of 0.3 μM Ro25-6981 alone potentiated, rather than blocked, total NMDAR-mediated currents by 51.3±16.4% in the hippocampus (FIG. 5).
The relative percentages of NR2A- and NR2B-mediated currents were determined by applying specific antagonists, NVP-AAM077 (0.4 μM) and Ro25-6981 (0.3 μM). The concentrations used here were based on the results from FIG. 5 and a recent study performed in the hippocampus (Liu et al., 2004). Application of NVP-AAMO77 depressed total NMDAR-mediated currents by 63.2±1.7% and the addition of Ro25-6981 to the same neuron further reduced currents by 13.7±1.4% (n=6) in the ACC (FIG. 6). […]

mice = experiment: Locomotor activity in the open field; type: in vivo, mouse; conditions: bilateral ACC microinjection, recorded 15 minutes or one day after injection
Experimental: NR2B subunit inhibition in adult mice was examined to determine whether this impairs the formation of contextual fear memory. Three days after bilateral siRNA electroporation, mice were trained (or conditioned) and then tested for contextual fear memory by assessing freezing behavior in the same environmental context after 24 hours. There was no difference in baseline freezing or in freezing immediately following the shock/tone pairing between groups; however, there was a significant difference between groups when tested in the contextual environment one day later (n=8 for EGFP only; n=10 for control siRNA; n=8 for shock only; n=11 for NR2B siRNA; one-way ANOVA, p=0.005; FIG. 8C). […] Since the activation of NR2B was suppressed throughout the training and memory test, the roles of NR2B during the acquisition and retrieval of fear memory cannot be distinguished. Recently, electric stimulation of the ACC was reported to induce fear memory one and three days after stimulation (Tang et al., 2005), which implies that the ACC may be involved in the acquisition of fear memory. To directly address this issue, the effect of NR2B blockade using Ro25-6981 was examined. […] In order to rule out any locomotor side-effects, locomotor activity in the open field was tested after bilateral ACC microinjection of Ro25-6981 (n=4) or vehicle (n=4).

NR1/NR2B = conditions: cited from earlier work

C[C@@H](CN1CCC(Cc2ccccc2)CC1)[C@@H](O)c1ccc(O)cc1 [Ro25-6981]
further reduction of total NMDAR-mediated currents ([1]; 0.3 μM Ro25-6981 added to the same neuron after 0.4 μM NVP-AAM077): 13.7±1.4%
depression of total NMDAR-mediated currents ([1]; 0.3 μM, applied alone or first): 18.0±1.9%
depression of total NMDAR-mediated currents ([1]; 3 μM): 18.1±3.4%
effect on total NMDAR-mediated currents ([1]; bath application of different doses, FIG. 5): depressed
locomotor activity in the open field (mice): no difference in locomotor activity
IC50 (NR1/NR2B): 9 nM

— US20070161592A1, “Method of treating fear” (priority 2005, published 2007)
